The assay concerns the target T1, 5-Lipoxygenase (Homo sapiens, UniProt P09917).
T1 construct: endogenous in cells; host or cells: human heparinized whole blood (its leukocytes)
T1 sequence (P09917 1-674): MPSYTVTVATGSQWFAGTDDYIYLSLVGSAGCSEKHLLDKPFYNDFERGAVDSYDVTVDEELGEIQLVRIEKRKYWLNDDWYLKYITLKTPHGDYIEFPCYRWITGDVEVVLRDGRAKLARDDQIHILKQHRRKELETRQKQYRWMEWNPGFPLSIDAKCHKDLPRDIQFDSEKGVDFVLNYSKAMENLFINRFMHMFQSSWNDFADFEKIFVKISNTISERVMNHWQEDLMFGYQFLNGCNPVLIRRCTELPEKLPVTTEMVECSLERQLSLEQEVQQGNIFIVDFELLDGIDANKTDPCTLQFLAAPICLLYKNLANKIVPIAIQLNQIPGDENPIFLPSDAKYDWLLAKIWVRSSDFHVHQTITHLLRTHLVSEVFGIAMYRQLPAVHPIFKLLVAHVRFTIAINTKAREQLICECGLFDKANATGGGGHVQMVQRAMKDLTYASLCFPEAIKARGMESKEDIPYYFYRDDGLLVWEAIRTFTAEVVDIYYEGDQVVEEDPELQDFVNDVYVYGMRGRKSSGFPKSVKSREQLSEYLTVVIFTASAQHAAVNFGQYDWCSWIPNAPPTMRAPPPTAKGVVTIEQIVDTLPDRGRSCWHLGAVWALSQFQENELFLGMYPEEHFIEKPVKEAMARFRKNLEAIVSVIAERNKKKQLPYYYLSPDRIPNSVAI
In words: Inhibition of calcium ionophore A23187-induced LTB4 biosynthesis in human whole blood (radioimmunoassay). The class given is cell-based. The note with it: human heparinized whole blood, 15 min preincubation, A23187 8.3 μM, 30 min, read-out: Inhibition of stimulated LTB4 formation in human whole blood (IC50 (10^-6 M)); for inhibition at 0.2 µM: @ 0.20 μM. On the procedure:
Inhibition of leukotriene biosynthesis was evaluated in an assay, involving calcium ionophore-induced LTB4 biosynthesis expressed human whole blood. Human heparinized whole blood was preincubated with test compounds or vehicle for 15 min at 37° C. followed by calcium ionophore A23187 challenge (final concentration of 8.3 μM) and the reaction terminated after 30 min by adding two volumes of methanol containing prostaglandin B2 as an internal recovery standard. The methanol extract was analyzed for LTB4 using a commercially available radioimmunoassay.
In Vitro Inhibitory Potencies of Compounds of this Invention
Against 5-Lipoxygenase from Stimulated LTB4
Formation in Human Whole Blood

Molecules are shown by their SMILES.

In the case of `CO/N=C(/c1cc(F)cc(OCc2ccc3c(ccc(=O)n3C)c2)c1)[C@H]1COC(C)(C)O1` [Example 6, Z-(4S)-O-methyl-2,2-dimethyl-4-[(5-fluoro-3-(1,2-dihydro-1-methyl-2-oxoquinoline-6-ylmethyloxy)phenyl)oximinomethyl]-1,3-dioxolane], the inhibition at 0.2 µM was determined as 83%.

For the compound `CO/N=C(\c1cc(F)cc(OCc2ccc3c(ccc(=O)n3C)c2)c1)[C@H]1COC(C)(C)O1` [Example 5, E-(4S)-O-methyl-2,2-dimethyl-4-[(5-fluoro-3-(1,2-dihydro-1-methyl-2-oxoquinoline-6-ylmethyloxy)phenyl)oximinomethyl]-1,3-dioxolane], under “@ 0.10 μM”, the inhibition at 0.1 µM came out at 95%. In the case of `CO/N=C(/c1cc(F)cc(OCc2ccc3ccccc3c2)c1)[C@H]1COC(C)(C)O1` [4(Z oxime), Z-(4S)-O-methyl-2,2-dimethyl-4-[(5-fluoro-3-(napth-2-ylmethyloxy)phenyl)oximinomethyl]-1,3-dioxolane], the inhibition at 0.78 µM turned out to be 78%. As to `CO/N=C(\c1cc(F)cc(OCc2ccc3ccccc3c2)c1)[C@H]1COC(C)(C)O1` [4(E oxime), E-(4S)-O-methyl-2,2-dimethyl-4-[(5-fluoro-3-(napth-2-ylmethyloxy)phenyl)oximinomethyl]-1,3-dioxolane], the inhibition at 0.2 µM came to 100%. Same read-out and setting: as for `COC[C@@H](OC)[C@@H](OC)c1cc(F)cc(OCc2ccc3ccccc3c2)c1` [Example 7, anti-(1S, 2R)-1-[(5-fluoro-3-(napth-2-ylmethyloxy)phenyl)]-1,2,3-trimethoxypropane], the figure is 95%. As to `COC[C@@H](OC)[C@H](OC)c1cc(F)cc(OCc2ccc3ccccc3c2)c1` [Example 8, syn-(1R, 2R)-1-[(5-fluoro-3-(napth-2-ylmethyloxy)phenyl)]-1,2,3-trimethoxypropane], the inhibition at 0.78 µM amounted to 92%.

By inhibition is commonly meant the percentage by which the read-out fell short of the control.

The record behind these values is patent US5475009A, “1, 2-dialkoxyethanes as 5-lipoxygenase inhibitors” (Abbott Laboratories, priority 1994, dated 1995).
